These results are taken from patent US20210275680A1, “USE OF THE TAS1R3 PROTEIN AS A MARKER FOR THERAPEUTIC, DIAGNOSTIC, AND/OR PROGNOSTIC PURPOSES FOR TUMORS THAT EXPRESS SAID PROTEIN” (FUNDACIÓN INSITITUTO DE INVESTIGACIÓN SANITARIA DE SANTIAGO …, priority 2018, published 2021).

For assay [1], the system named is SW620 cells. In words: Cell proliferation of SW620 cells with free ligand in the medium (cell counting). It is filed as cell-based, human. Here is the method:
FIG. 8. RT-PCR of the receptor when the cells are kept in contact with lactisole for 9 days, comparing it with the controls (SW620 cultured in medium with low glucose concentration) (A). Cell proliferation of SW620 cells cultured in medium with low glucose concentration, and increasing concentrations of lactisole (from 0.44 mg/mL to 7 mg/mL) for 72 h (B). Colony formation of control SW620 cells or in contact with the lactisole ligand, at a concentration of 3.5 mg/mL, after 15 days of culture (C). Beta-galactosidase staining, indicative of cellular senescence, in SW620 cells treated with lactisole (3.5 mg/mL for 72 hours, arrows show cells where staining can be seen) (D). Western blot showing the expression of different proteins involved in tumor progression in SW620 cells when they are exposed to different glucose concentrations (high and low) and lactisole (3.5 mg/ml) for 9 days (E). […] Cell proliferation studies were carried out in SW620 cells, FIG. 7A, cultured in medium with high and low glucose concentration. […] Photos were taken using the microscope (Leica DMIL® microscope) and subsequently they were trypsinized, and the number of cells was counted to make the comparison between these and the starting ones in order to observe the effect of the ligand on the cells. […]

Assay [2] has as its system SW620 cells. In words: Beta-galactosidase staining for cellular senescence. In kind it is cell-based, human. The settings on record: SW620, low glucose medium, 3.5 mg/mL, 72 hours (FIG. 8D). Here is the method:
To determine whether after cell incubation with the ligand cell senescence is induced, 500,000 cells of the SW620 line were cultured in 6-well plates and medium with low glucose concentration. In several wells, ligand (3.5 mg/mL) was added. After 72 hours, the wells were washed and fixed (2% formaldehyde, 0.2% glutaraldehyde in PBS) for 15 minutes at room temperature. The solution was eliminated giving three washes with 1×PBS, and then the staining solution was applied, calculated for one milliliter of solution: 200 μL citric acid/phosphate buffer, pH 6.0 (dibasic sodium phosphate (Na2HPO4) 0.2 M+0.1 M citric acid), 30 μL 5 M NaCl, 50 μL potassium ferricyanide (K3[Fe(CN)6]) 100 mM, 50 μL potassium ferrocyanide (K4[Fe(CN)6]) 100 mM, 2 μL magnesium chloride (MgCl2) 1 M, 50 μL solution X-gal (20 mg/mL of 5-bromo-4-chloro-3-indolyl β D-galactopyranoside in […]) and 618 μL distilled water. It was incubated in the oven at 37° C. overnight, the wells were washed with distilled water in motion twice, to then apply PBS 1× and observe the possible senescent cells under the Vert microscope. Al, Zeiss®. Blue staining is observed, corresponding to cells in senescence.

The subject of assay [3] is SW620 cells. The assay can be described thus: Colony formation of SW620 cells with free ligand. To be noted: SW620, low glucose medium, 3.5 mg/mL ligand, 15 days, versus control SW620 (FIG. 8C). In kind it is cell-based, human. On the procedure: Cell proliferation studies were carried out in SW620 cells, FIG. 7A, cultured in medium with high and low glucose concentration. The cells were trypsinized and plated the same number of cells in order to count them at times 0, 24, 72, 96 and 168 hours, using for this the Neubauer chamber, after trypsinization thereof. In an analogous manner, cell proliferation studies were carried out in medium with the presence of free ligand, FIG. 8, which was added to the culture medium at different concentrations. Photos were taken using the microscope (Leica DMIL® microscope) and subsequently they were trypsinized, and the number of cells was counted to make the comparison between these and the starting ones in order to observe the effect of the ligand on the cells. […] However, when studies of colony formation were carried out, starting from an amount of 200 cells per well and waiting for 15 days, it was observed that cells cultured in medium with low concentration of glucose, and that express higher levels of receptor, formed more colonies than those grown in high glucose medium (FIG. 7B). For colony formation studies, 12 well plates were used, plating in different amounts of cells (200, 400,600 and 800 cells per well), in medium with high (4500 mg/L) and low (1000 mg/L) content of glucose. […]

The subject of assay [4] is TAS1R3 receptor. In words: RT-PCR of TAS1R3 receptor in SW620 cells kept in contact with lactisole. It is filed as cell-based, human. To be noted: SW620, low glucose medium, lactisole for 9 days, versus controls (FIG. 8A).
Method: Metastatic colon cells from the lymph node (SW620, CCL-227), colorectal adenocarcinoma epithelial cells (SW480, CCL-228), lung carcinoma epithelial cells (A549, CCL-185), and metastatic lung cells from the liver (H1755, CRL-5892), pancreatic carcinoma cells (MIA PaCa-2, CRL-1420), and glioblastoma cells (U118, HTB-15 and U87MG, HTB-14) were used. The SW620, SW480, A549, U118 and U87MG lines were maintained in DMEM HG medium (Dulbecco's Modified Eagle's Medium—High glucose, Sigma-Aldrich), and the H1755 line in RPMI 1640 medium (Gibco®, LifeTecnologies), both supplemented to the 10% with fetal bovine serum (Gibco®, LifeTecnologies) and 1% with antibiotic (penicillin and streptomycin, Sigma-Aldrich). For the quantitative analysis of the expression of TAS1R3, a polymerase chain reaction was carried out with reverse transcriptase (RT-PCR), starting from RNA extracted from all cell lines in culture. […] RNA extraction was carried out using the extraction kit (GeneJET RNA Purification Kit, ThermoScientic), and the analysis was carried out in a manner similar to that described in a previous paragraph. Once the procedure was finished, the data were analyzed.
Assay [5] relates to p-ERK, p-AKT, IGF-IR. In words: Western blot of proteins involved in tumor progression in SW620 cells. It is filed as cell-based, human. The settings on record: SW620, lactisole 3.5 mg/ml or high glucose (HG), 9 days (FIG. 8E). On the procedure: FIG. 8. RT-PCR of the receptor when the cells are kept in contact with lactisole for 9 days, comparing it with the controls (SW620 cultured in medium with low glucose concentration) (A). Cell proliferation of SW620 cells cultured in medium with low glucose concentration, and increasing concentrations of lactisole (from 0.44 mg/mL to 7 mg/mL) for 72 h (B). Colony formation of control SW620 cells or in contact with the lactisole ligand, at a concentration of 3.5 mg/mL, after 15 days of culture (C). Beta-galactosidase staining, indicative of cellular senescence, in SW620 cells treated with lactisole (3.5 mg/mL for 72 hours, arrows show cells where staining can be seen) (D). […]
For the qualitative study of proteins, Western Blot was performed from proteins isolated from the SW620 cell line, and the results are shown in FIG. 6 (B). […] The total protein of each sample was quantified by the […] (conversion method of bicathionic to monocationic copper in alkaline conditions influenced by specific amino acids such as cysteine, cystine, tryptophan, tyrosine and also by the peptide chain; the amount of bicathionic copper will depend of the amount of these components and will be determined spectrophotopically) using the commercial kit DC-Assay (BIO-RAD®) and establishing a calibration line with bovine serum albumin (BSA, Sigma-Aldrich). […]

Assay [6] can be described thus: Immunization of mice with TAS1R3 peptide, titration of bleeds. To be noted: 4 plus 2 doses of 50 μg of peptide. It is filed as in vivo. On the procedure: The resulting protein was purified to homogeneity with a final purity of 90-95%, 2 mg conjugated to KLH, 3 mg conjugated to BSA. The design of the genomic construct was carried out based on the literature (Maitrepierre et al., 2012). Likewise, a study of storage buffer formulation was carried out to preserve the integrity of the protein (restricting the use of detergents and polysaccharides in the final formula). The batch obtained was aliquoted in labeled sterile vials and stored at −80° C. until use. After several immunizations of the mice with 4 plus 2 doses of 50 μg of peptide, the bleeds were titrated in order to evaluate the increase of the response against the peptide.

As for “CFYDEKR [peptide derived from brazzein, brazzein peptide, ligand for TAS1R3]”, the Cell proliferation result in assay [1] (SW620, DMEM supplemented with different receptor ligands, extent depends on concentration and molecule (FIG. 8F)) is “interfere with proliferation”.
As for `COc1ccc(OC(C)C(=O)O)cc1` (stereo not shown) [lactisole, Lactisole], the “Cellular senescence (beta-galactosidase staining)” value in assay [2] is “induction of cellular senescence”. Moreover, in assay [1] (SW620, low glucose medium, lactisole 0.44 to 7 mg/mL, 72 h, effect at higher concentrations (FIG. 8B)), the Cell proliferation result was “interferes with cell proliferation”. In assay [3], the Colony formation result is given as “no representative colony formed on the plate was observed”. The “Expression of the TAS1R3 receptor (RT-PCR)” value in assay [4] is on record as “increase in the expression of the receptor”. For the same compound, the “Activation of pathways related to tumor progression (western blot)” value in assay [5] is “activates pathways related to tumor progression, such as p-ERK, p-AKT or IGF-IR”.
For “Acetyl-LSQQLRMKGDYVLGGC-amide (Ac-LSQQLRMKGDYVLGGC-NH2) [TAS1R3 N-terminal extracellular peptide immunogen, conjugated to KLH / BSA]”, in assay [6], the “Response against the peptide (titration of bleeds)” value is “some response against the peptide, although with very low values”.
